Assay results as given in paper PMC6928345, “Detection and functional characterization of sigma class GST in Phlebotomus argentipes and its role in stress tolerance and DDT resistance” (Scientific Reports, 2019).

Legend:
[1] = biological target: T1, rParg-GSTσ (sigma class GST of P. argentipes) (Phlebotomus argentipes, UniProt A0A5A4I953); test: spectrophotometric GSH conjugation assay, […] nm; assay type: biochemical; conditions: 1 mM GSH, CDNB 0.07–8 mM, sodium phosphate pH 6.5, room temperature
T1 construct: PCR primers designed on P. papatasi GSTσ
T1 sequence (A0A5A4I953 1-203): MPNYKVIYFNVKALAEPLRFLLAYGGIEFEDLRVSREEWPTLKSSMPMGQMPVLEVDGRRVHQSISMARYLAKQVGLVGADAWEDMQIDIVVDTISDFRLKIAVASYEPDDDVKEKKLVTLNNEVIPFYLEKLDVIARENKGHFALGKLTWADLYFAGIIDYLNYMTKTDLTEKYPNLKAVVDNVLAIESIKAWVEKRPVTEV

[2] = biological target: T1, rParg-GSTσ (sigma class GST of P. argentipes); test: inhibition of GST activity, residual activity; assay type: biochemical
[3] = substrate: CCCCCC(O)/C=C/C=O; test: purified protein; assay type: biochemical, Phlebotomus argentipes; conditions: 1 mM GSH, 4-HNE 10–100 µM, sodium phosphate buffer
[4] = substrate: CC(C)(OO)c1ccccc1; test: purified protein; assay type: biochemical, Phlebotomus argentipes; conditions: 1 mM GSH, 0.2 mM NADPH, 1 mM EDTA, cumene hydroperoxide 0.08–1.0 mM, sodium phosphate buffer

## O=[N+]([O-])c1ccc(Cl)c([N+](=O)[O-])c1 [CDNB]
[1]
  Km: 390 µM

## C=C(CC)C(=O)c1ccc(OCC(=O)O)c(Cl)c1Cl [Ethacrynic acid]
[2]
  IC50: 50 nM

B1: rParg-GSTσ (sigma class GST of P. argentipes) (Phlebotomus argentipes) (protein)
chain: T1 sequence (A0A5A4I953 1-203)
notes: PCR primers designed on P. papatasi GSTσ
[3]
  Km: 5.02 µM
[4]
  Km: 180 µM
